The target of one series is T1, PcdA (Staphylococcus aureus, UniProt A0A0H2XHA0).
T1 construct: gene SAUSA300_2094; full-length, untagged; His6-SUMO fusion (pTB146, pFRL159) cleaved with Ulp1; expressed in E. coli BL21(DE3)
T1 sequence (A0A0H2XHA0 1-457): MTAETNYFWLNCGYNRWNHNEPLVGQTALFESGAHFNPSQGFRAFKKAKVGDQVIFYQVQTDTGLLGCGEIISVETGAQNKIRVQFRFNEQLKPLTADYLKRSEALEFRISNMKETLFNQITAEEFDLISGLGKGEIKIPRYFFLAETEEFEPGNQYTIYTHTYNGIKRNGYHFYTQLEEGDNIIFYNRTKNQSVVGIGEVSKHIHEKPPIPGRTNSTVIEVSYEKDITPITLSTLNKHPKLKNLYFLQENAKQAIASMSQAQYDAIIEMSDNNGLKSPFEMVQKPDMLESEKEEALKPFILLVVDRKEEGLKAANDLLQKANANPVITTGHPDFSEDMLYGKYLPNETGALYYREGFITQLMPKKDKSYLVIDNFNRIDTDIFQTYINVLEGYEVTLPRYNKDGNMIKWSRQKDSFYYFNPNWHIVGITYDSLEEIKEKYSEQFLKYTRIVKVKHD
In words: inorganic phosphate release (PiColorLock). The settings on record: 50 mM Tris-HCl pH 8.0, 150 mM KCl, 5 mM MgCl2, 37 °C, 0.25-4 mM NTP, 2.5 μM protein. In kind it is biochemical.

Series [1] concerns the molecule itself. In words: co-sedimentation; with 2 mM GMPCPP; 30 μM FtsZ with or without PcdA (5 μM in the legend, 10 μM in the methods); 20 mM HEPES pH 7.5, 140 mM KCl, 5 mM MgCl2; 10 min at 37 °C, then 30 min at 129,000 × g; supernatant and pellet on SDS-PAGE, Coomassie.

The values that follow come from doi:10.1101/2023.09.03.556088, “Protein coopted from a phage restriction system dictates orthogonal cell division plane selection in Staphylococcus aureus” (bioRxiv, 2023).

Take `Nc1ncnc2c1ncn2[C@@H]1O[C@H](COP(=O)(O)OP(=O)(O)OP(=O)(O)O)[C@@H](O)[C@H]1O` [ATP]: on PcdA, the kcat result is “Incubation of increasing concentrations of either ATP or GTP with PcdA produced saturation curves”.

Consider `Nc1nc2c(ncn2[C@@H]2O[C@H](COP(=O)(O)OP(=O)(O)OP(=O)(O)O)[C@@H](O)[C@H]2O)c(=O)[nH]1` [GTP], for which, on PcdA, the kcat entry is on record as “Incubation of increasing concentrations of either ATP or GTP with PcdA produced saturation curves”.

B1: FtsZ (purified recombinant untagged S. aureus FtsZ) (natural protein, UniProt P0A031 1-390, looked up)
chain: MLEFEQGFNHLATLKVIGVGGGGNNAVNRMIDHGMNNVEFIAINTDGQALNLSKAESKIQIGEKLTRGLGAGANPEIGKKAAEESREQIEDAIQGADMVFVTSGMGGGTGTGAAPVVAKIAKEMGALTVGVVTRPFSFEGRKRQTQAAAGVEAMKAAVDTLIVIPNDRLLDIVDKSTPMMEAFKEADNVLRQGVQGISDLIAVSGEVNLDFADVKTIMSNQGSALMGIGVSSGENRAVEAAKKAISSPLLETSIVGAQGVLMNITGGESLSLFEAQEAADIVQDAADEDVNMIFGTVINPELQDEIVVTVIATGFDDKPTSHGRKSGSTGFGTSVNTSSNATSKDESFTSNSSNAQATDSVSERTHTTKEDDIPSFIRNREERRSRRTRR
notes: FtsZ, tubulin homolog, Staphylococcus aureus; Polymerised with GMPCPP in the co-sedimentation assay, unpolymerised (no GTP) in the filter retention assay
With B1, the binding result in series [1] is recorded as “binds”.
